The subject of one experiment is phosphor-Chk. Nature of the experiment: Western blot of DNA damage marker, MEF cells. Format: cell-based, mouse. The note with it: early stage post UVB 50 mJ/cm^2. On the procedure: (§1) FIGS. 5A-5B: Carnosol protects UVB-induced DNA damage. (FIG. 5A) HaCaT cells and (FIG. 5B) MEF cells were exposed to 50 mJ/cm^2 UVB radiation in the presence or absence of carnosol. Cells were lysed at indicated time point and protein levels of phosphorylated H2AX and Chk were measured. The data represents three sets of independent experiments.
(§2) Cells were lysed with Nonidet P-40 (NP-40) lysis buffer (2% NP-40, 80 mM NaCl, 100 mM Tris-HCl pH 8.0, 0.1% SDS) with proteinase inhibitor mixture (Complete™, Roche Molecular Biochemicals) at indicated time point. Cell lysate was incubated on ice for 15 min and then centrifuged at 14,000 rpm at 4° C. for 15 min. Protein concentration was measured by Protein DC Assay kit (Bio-Rad Laboratories). Equal amounts of protein were subjected on SDS-PAGE and transferred to a nitrocellulose membrane. The membrane was then blocked in 5% milk in Tris buffered saline plus Tween 20 ® (TBST) for 45 min and probed with anti-yH2AX (Cell Signaling), anti-pCHK (Cell Signaling), anti-p276-NF-κB (Santa Cruz), anti-NF-κB p65 (Santa Cruz), anti-IκB (Santa Cruz), or anti-β-actin (Santa Cruz) at 4° C. overnight. After washing with TBST, the membrane was incubated with corresponding HRP-conjugated anti-rabbit or anti-mouse antibody for 45 min at room temperature. […]
(In western blotting, separated proteins are transferred to a membrane and probed.)

In experiment [1] the test system is γH2AX (phosphorylated H2AX). Nature of the experiment: Western blot of DNA damage marker, MEF cells. To be noted: early stage post UVB 50 mJ/cm^2. Format: cell-based, mouse. On the procedure:
as §1, §2

The next experiment concerns HaCaT cells. Nature of the experiment: Comet assay for HaCaT exposed to UVB radiation. Type of experiment: cell-based, Human. The note with it: semi-quantitative by Image J. An excerpt:
FIG. 5D: Comet assay for HaCaT exposed to UVB radiation. After cell treatment, cells were trypsinized and collect for comet assay. The tail intensity was semi-quantitatively analyzed using Image J.
Both human keratinocyte (HaCaT) and mouse embryonic fibroblast (MEF) cells were used, and the protein levels of γH2AX and phosphor-Chk were used as DNA damage marker. […] Similar results are observed in MEF cells as both the phosphorylation level of H2AX and Chk reduced at early stage post UVB radiation (FIG. 5B). […] To further show the protection effect of carnosol on UVB-irradiated cell, a comet assay was performed. […] Thus, carnosol ast least partially protect the DNA damage from UVB radiation.

A further experiment deals with MEF cells. Put plainly: Cell survival analysis (Annexin V/PI flow cytometry), MEF. Type of experiment: cell-based, mouse. The note with it: 20 μM carnosol. On the procedure: FIGS. 6A-6C: Carnosol protects UVB-induced cell death. Cells were exposed to UVB radiation with different dose of carnosol treatment. At indicated time point, cells were collected and Annexin V/PI apoptosis detection kit was used to detect cell apoptosis. (FIG. 6A) HaCaT cell survival rate with different concentrations (μM) of carnosol treatment at 12 h post UVB radiation. (FIG. 6B) Time dependent assay (h) in the presence or absence of carnosol treatment in HaCaT cells. (FIG. 6C) MEF cells treated with 20 μM carnosol at indicated time point (h). The error bars present the standard deviation of three sets of independent experiments. *p<0.05 versus control group; **p<0.05 versus corresponded UV group.
UVB was generated from a Bench XX-Series UV Lamp (UVP Inc.) equipped with two 15-watt UVB tubes (UVP Inc.). The intensity of UVB was calibrated by a UVP model UVX digital radiometer (UVP Inc.) after the lamps warmed up for 5 min. For irradiating cells, the dose rate for 8 mJ/cm^2 or 50 mJ/cm^2 of UVB radiation was 0.8 or 3.8 mW/s respectively. Medium was removed before exposing the cells to UVB. After UVB radiation, fresh medium was added to the culture plates with or without drugs, and the cells were continue incubating at 37° C. with 5% CO2 until further analysis. Carnosol was disovled in DMSO and was irradiated with 50 mJ/cm^2 of UVB radiation at a dose rate of 3.8 mW/s before subjecting to cells or structure analysis using Mass Spectrum.
Carnosol (Cayman) (FIG. 1) was added to cells at indicated concentration at 1 h before exposing the cells to UVB radiation. After radiation, cells were continuously incubated with or without carnosol in the medium until further analysis.
Total cell number of 1×10^5 was used for each analysis using flow cytometer. Fluorescein isothiocyanate (FITC) conjugated-annexin V (ANXS)/propidium iodide (PI) apoptosis detection kit (BD Biosciences) were used to stain the cells through the determination of the loss of membrane phospholipid […] and membrane integrity. Cell survival rate (R) was calculated as: R=[1×10^5−number of positive stained cells]/1×10^5. Briefly, the cells were harvested by 0.25% trypsin digestion, combined with the cells floating in the medium and washed twice with cold PBS. The cells were then suspended in ANXS binding buffer (10 mM Hepes/NaOH, pH 7.4, 140 mM NaCl and 2.5 mM CaCl2). The cell suspension was mixed with 5 μL ANXS-FITC and 5 μL PI. The cell mixture was incubated for […] in dark at room temperature and the ANXS/PI double-stained cells were analyzed using a FACSort Flow Cytometer (BD Science) equipped with CellQuest software (BD Science).
(Flow cytometry measures light scatter and fluorescence of single cells or particles in a stream.)

For experiment [2], the system named is A431 human squamous carcinoma cell. Nature of the experiment: Clonogenic assay, A431. Type of experiment: cell-based. As to the method: FIGS. 9A-9B. Carnosol decreases A431 cancer cell progression. Squamous carcinoma cell A431 was used to determine the effect of carnosol on cancer cell progression. (FIG. 9A) Effect of carnosol on cell viability. Cells were treated upon 50 mJ/cm^2 UVB radiation with or without carnosol treatment. After 24 h, cells were collect and MTT assay was performed to determine the cell viability. *p<0.05 versus control group, **p<0.05 versus UV group at indicated time point. (FIG. 9B) Effect of carnosol on clonogenic assay. Cells were exposed to 8 mJ/cm^2 UVB exposure in the presence or absence of carnosol. 5×10^3 cells were plated into 6 well plate immediately after treatment and incubated for […]. The error bars present the standard deviation of three sets of independent experiments. *p<0.05 versus control group, **p<0.05 versus UV group at indicated time point.
Immediate after treatment, cells were harvested with 0.25% trypsin-EDTA and counted, and then 5×10^3 cells were plated in 6-well plates. After 6 days, cells were fixed with cold methanol for 10 mM at […] and then stained by 1% crystal violet in 25% methanol for 10 mM. Cells were then rinsed with distilled water and colonies with a size greater than 0.4 mm were counted by Kodak IS in vivo F system equipped with Kodak Molecular Imaging Software (Eastman Kodak).

One molecule from patent US20190388389A1, “METHODS AND COMPOSITIONS OF CARNOSOL FOR INHIBITING UVB-INDUCED SKIN DAMAGE” (Ohio University, priority 2017, published 2019) can be followed below.

`CC(C)c1cc2c(c(O)c1O)[C@@]13CCCC(C)(C)[C@@H]1C[C@@H]2OC3=O` [carnosol]: in the experiment on phosphor-Chk, the “phosphorylation level of Chk” value is given as “reduced”. Also, the “phosphorylation level of H2AX” value in experiment [1] was “reduced”. Further, in the experiment on HaCaT cells, the “comet tail intensity upon UVB radiation” value is listed as “almost by half”. Further, the cell survival rate is recorded as 97% in the experiment on MEF cells (12 h post UVB, UVB alone about 88%); 90% in the experiment on MEF cells (24 h post UVB, UVB alone 80%); 70% in the experiment with MEF cells (36 h post UVB, UVB alone 62%); 58% in the experiment on MEF cells (48 h post UVB, UVB alone 43%). In experiment [2] (A431, carnosol and UVB radiation together), the “effect of double treatment on reduction of cancer cell survival” value is given as “synergistic effect”. In addition, the colony formation result in experiment [2] (A431, carnosol combined with 8 mJ/cm^2 UVB, UVB alone about 43%) is recorded as “about 17%”. The colony formation rate entry in experiment [2] (A431, carnosol treatment alone) is on record as “about 65%”.
